Experimental data reported in EP1522308A1, “Use of chlorophyll or analogues for the prevention of cytotoxic effects of dietary heme on the intestinal mucosa” (Stichting Top-Instituut Voedselwetenschappen, priority 2003, dated 2005).

Legend:
colon mucosa = assay: Total DNA content of colon mucosa scrapings (diphenylamine reaction); format: in vivo, rats; conditions: spinach study
Text: After the experimental feeding period of 14 days, we quantified the colon epithelial cell proliferation as DNA-replication, using [methyl-^3H]thymidine incorporation into DNA. We choose this biochemical method because it is the most rapid, specific and quantitative marker of cell replication in vivo. Moreover, we have shown earlier that DNA-replication highly correlates with faecal water cytotoxicity. This substantiates a cause-and-effect relationship that we want to address in the present study. Non-fasted rats were injected i.p. with [methyl-^3H]thymidine (specific activity 925 GBq / mmol; dose 3.7 MBq / kg body weight; Amersham International, Amersham, UK) in 154 mM NaCl. After 2 hours the rats were killed by CO2 inhalation. The colon was removed and opened longitudinally. Colonic contents were removed by rinsing with 154 mM KCl. […] These homogenates were analyzed for ^3H-thymidine incorporation and for total DNA content. […] A sample (0.5 ml) of the hydrolysate was dissolved in 15 ml Aqua Luma (Lumac-LSC BV., Groningen, The Netherlands) and counted with corrections for quenching on a Beckman LS-7500 liquid scintillation counter. DNA content was determined using the diphenylamine reaction with calf thymus DNA as standard (Sigma).

colonocytes = assay: Quantification of epithelial (host) DNA in feces by real-time PCR for the β-globin gene; format: in vivo, rats
Protocol: Food and demineralised drinking water were supplied ad libitum.
Fecal host DNA content was quantified using DNA extraction and real-time PCR, using rat-specific probe and primers for the β-globin gene. In short, DNA was isolated from 20 mg freeze-dried feces using the QIAamp DNA stool mini kit (Westburg, Leusden, The Netherlands) following the recommendations of the manufacturer for human DNA analysis. […] The standard DNA used for the quantification of the DNA in the feces was isolated from rat spleen, using the Wizard Genomic DNA purification kit (Promega Corporation, Madison, WI, USA). The real-time PCR was performed using the ABI prism 7700 Sequence Detection system (PE Applied Biosystems, Nieuwerkerk a/d IJssel, The Netherlands). Universal Taqman Master Mix and Taqman Exogenous Internal positive Control (IPC) Reagent (Vic ™ probe) were purchased from Applied Biosystems and the Taqman probe containing a 5' FAM labeled fluorescent reporter dye (6-carboxyfluorosein) and a 3' TAMRA quencher dye (6-carboxytetramethylrhodamine) was purchased from Proligo (Paris, France). PCR primers were synthesized by Amersham Pharmacia Biotech Custom DNA Synthesis Service (Roosendaal, The Netherlands). For amplification of host DNA 5 µl of the purified DNA (100-500 ng) was used in a volume of 50 µl, containing 1x Master Mix, 200 nM forward primer (5'-[…]-3'), 200 nM reverse primer (5'-[…]-3'), 100 nM probe (5'-[…]-3'), 1x IPC mix and 1x IPC DNA. The PCR protocol consisted of 2 min 50°C, 10 min 95°C and 40 cycles of 15 sec 95°C and 1 min 62°C.

[1] = system: human erythrocyte suspension; assay: Cytotoxicity of fecal water, potassium release from erythrocytes (erythrocyte bioassay); format: cell-based
Protocol: Fecal water was prepared by reconstituting a small amount of freeze-dried feces with double-distilled water to 20 % dry weight. After homogenizing, samples were incubated for 1 hour in a shaking water bath at 37°C, with mixing every 15 min, followed by centrifugation for 20 min at 13.500 g. The supernatants were collected and centrifuged again at 14.000 g for 2 min. The osmolarity (Osmomat 030-D, Gonotec, Berlin, Germany) of the fecal waters was determined. If osmolarity differed from 300 mOsmol/L, another portion of freeze-dried feces was reconstituted with double-distilled water, adjusting the percentage dry weight to obtain fecal water with an osmolarity of 300 mOsmol/L. The fecal waters were stored at -20°C until further analysis.
(§1) Cytotoxicity of fecal water was quantified by potassium release after incubation with a human erythrocyte suspension as described previously and validated earlier with intestinal epithelial cells. The potassium content of the erythrocytes was measured with an Inductive Coupled Plasma […] Emission Spectrophotometer (ICP-AES, Varian, Mulgrave, Australia) and the cytotoxicity of fecal water was calculated and expressed as a percentage of maximal lysis.

[2] = system: human erythrocyte suspension; assay: Cytotoxicity of size exclusion chromatography fractions of lipid extracts of pooled fecal water; format: cell-based; conditions: chlorophyll study, heme group: high-molecular weight components eluting around 6 min (Figure 6B)
Protocol: as §1
Pooled fecal water from the different treatment groups was first purified, by adding 560 µl water and 2.5 ml diethylether (ether) to 100 µl fecal water, and after vigorous mixing, centrifugation at 1500 g for 5 minutes. The ether phase containing chlorophyll was discarded and the procedure was repeated 2 times. The remaining 660 µl sample was acidified with 60 µl HCl (final HCl concentration 1 M) and further extracted with chloroform / methanol as described earlier. The lipid-containing chloroform phase was obtained after centrifugation (10 min, 1500 g) and evaporated under nitrogen. […] The data was processed and analyzed using Shimadzu software. […] The cytotoxicity of these fractions was determined as described above, after resolubilising the samples in 50 mM NaOH and adjusting to neutral pH and 300 mOsm/L with 3-[N-morpholino]-propanesulfonic acid (MOPS).

colonic epithelial cells = assay: In vivo colonic epithelial cell proliferation, [methyl-3H]thymidine incorporation into DNA; design: species or system rats
Protocol: About eight-week-old, outbred male Wistar rats (Harlan Horst/WU, SPF) were housed individually in metabolic cages in a room with controlled temperature (± 20°C), relative humidity (50-60%) and a light/dark cycle (6 AM to 6 PM). Animals were acclimatized to housing conditions for 5 days before start of the experiment.
In the first study we tested whether spinach prevents the effect of dietary heme. […] During two weeks, four groups of eight rats were fed purified diets. The control group consumed a diet which contained per kg, 200 g casein, 532 g dextrose, 200 g fat (160 g palm fat and 40 g corn oil), 20 g cellulose and 20 mmol calcium phosphate (CaPO4·2H2O, Fluka Chemie Buchs, Switzerland). […]
After the experimental feeding period of 14 days, we quantified the colon epithelial cell proliferation as DNA-replication, using [methyl-^3H]thymidine incorporation into DNA. […] These homogenates were analyzed for ^3H-thymidine incorporation and for total DNA content. […] A sample (0.5 ml) of the hydrolysate was dissolved in 15 ml Aqua Luma (Lumac-LSC BV., Groningen, The Netherlands) and counted with corrections for quenching on a Beckman LS-7500 liquid scintillation counter. DNA content was determined using the diphenylamine reaction with calf thymus DNA as standard (Sigma) [24].

| Substance | decrease of DNA content of the mucosa compared with the other groups (colon mucosa; 0.5 mmol heme / kg diet) | DNA content of the mucosa (colon mucosa; mean ± SEM, n=8 per group) | host DNA detected in the feces compared to the control diet (colonocytes; chlorophyll study, 0.5 mmol heme / kg diet, feces of days 11-14 (Figure 4)) | exfoliation of colonocytes (rat DNA quantification from faeces) (colonocytes; summary of examples 1 and 2, dietary heme) | cytotoxicity of the fecal water compared with the control diet ([1]; chlorophyll study, 0.5 mmol heme / kg diet, fecal water of rats (Figure 5)) | increase of cytotoxicity of fecal water compared with the control group ([1]; spinach study, fecal water of rats, 0.5 mmol heme / kg diet) | cytotoxicity of collected size exclusion chromatography fractions [2] | increase in rate of DNA-replication compared with the control group (colonic epithelial cells; spinach study, 0.5 mmol heme / kg diet, 14 days) | effect on heme-induced reduction of host DNA in the feces (colonocytes; chlorophyll study, supplemented to the heme diet (Figure 4)) | inhibition of heme-induced increase of cytotoxicity of the fecal water ([1]; chlorophyll study, supplemented to the heme diet, fecal water of rats (Figure 5)) | prevention of heme-induced epithelial hyperproliferation (colonic epithelial cells; chlorophyll study, added to heme diet, 1,2 mmol chlorophyll / kg diet, 14 days (Figure 3)) |
| --- | --- | --- | --- | --- | --- | --- | --- | --- | --- | --- | --- |
| hemin [heme] | 20% | 4207 µg DNA / g scraping | strong reduction | inhibited this exfoliation of colonocytes almost completely | increase | 7 fold | very high | 50% |  |  |  |
| chlorophyll |  |  |  |  |  |  |  |  | totally abolished | completely | completely prevented |
